According to PMC5824344 (ACS Chemical Biology, 2017):
Entries after “also recorded” stand apart in the source; their conditions may differ.

What was measured:
[1] = cited from earlier work
[2] = test system: DENV (serotype 2, strain 16681) in Huh7.5 cells; test: DENV Huh7.5 antiviral assay (infectious titer by plaque assay); format: cell-based, dengue virus; conditions: MOI 0.1, 48 h, titration of 4 or 50 µm of 3
Protocol: Supplemental Figure 3: Antiviral activity of 4 in human hepatoma Huh7.5 cell line.
(A) Huh7.5 cells were infected with DENV (serotype 2, strain 16681, multiplicity of infection = 0.1) and treated with a titration of ToP-DNJ 4 or 50 µm of tocopherol 3 for 48 h. Infectious virus titer was measured by plaque assay on LLC-MK2 cells. Counts were normalized to 100% for untreated samples.
DENV eﬀect at the concentrations tested. (B) Huh7.5 cells were infected with HCV (JFH-1, multiplicity of infection = 2) and treated with a titration of ToP-DNJ 4 or 50 µm tocopherol 3 for 96 h. Infectious virus titer was measured by TCID50 assay on […]
tested. In both panels, each data point represent the mean of triplicates, with error bars showing standard error of the mean (GraphPad Prism). […]
each well was scored as either positive (≥ 5 stained cells) or negative. TCID50 values were calculated according to the method of Reed and Muench.8 […]
The infectious DENV titres in supernatants collected were evaluated by plaque assay as described previously.9 Brieﬂy, LLC-MK2 cells were seeded in conﬂuent monolayers in a 12-well plate. Four 10-fold dilutions of each supernatant to be analyzed were prepared in minimum essential media (MEM, Gibco), supplemented with 100 µg mL−1 streptomycin, 100 U mL−1 penicillin and 10% (v/v) FCS. […]
After 1 d, plaques were observed and counted from the underside of the plate by eye. […]

Row | SMILES | plasma half-life [1] [h] | tissue in which compound is found in the highest amounts ([1]; renally excreted) | anti-DENV effect (infectious virus titer) [2]
1 | CCCCN1CC(O)C(O)C(O)C1CO [Compound 2, N-butyl-D-1-deoxynojirimycin, reference compound] | 5 | highest amounts in the kidneys and bladder | –
2 | Cc1c(C)c2c(c(C)c1OCCCCCN1CC(O)C(O)C(O)C1CO)CCC(C)(CCCC(C)CCCC(C)CCCC(C)C)O2 (stereo not drawn) [Compound 4, 5′-tocopheroxypentyl-DNJ] | – | – | neither an anti-DENV nor anti-HCV effect was observed; also recorded: Neither 4 nor 3 showed an anti-
